Where two headings read alike, the source gives them in different places.

What all share (assay type): binding
Assay [1] concerns the target T1, catalytic JH1 domain of JAK1 (Homo sapiens, UniProt P23458).
T1 construct: the catalytic JH1 domains of JAK1 and JAK2; purchased Ambit Biosciences (scanMAXX KINOMEscan)
Put plainly: KINOMEscan, JAK1 JH1 domain. Particulars: for remaining binding at 1 µM / remaining binding at 10 µM: kinase JAK1(JH1domain-catalytic); for remaining binding at 1 µM: read-out: % of control at 1 µM; for remaining binding at 10 µM: read-out: % of control at 10 µM.

Assay [2] has as its target T2, MAP4K2 (Homo sapiens, UniProt Q12851).
T2 construct: purchased Ambit Biosciences (scanMAXX KINOMEscan)
T2 sequence (Q12851 1-820): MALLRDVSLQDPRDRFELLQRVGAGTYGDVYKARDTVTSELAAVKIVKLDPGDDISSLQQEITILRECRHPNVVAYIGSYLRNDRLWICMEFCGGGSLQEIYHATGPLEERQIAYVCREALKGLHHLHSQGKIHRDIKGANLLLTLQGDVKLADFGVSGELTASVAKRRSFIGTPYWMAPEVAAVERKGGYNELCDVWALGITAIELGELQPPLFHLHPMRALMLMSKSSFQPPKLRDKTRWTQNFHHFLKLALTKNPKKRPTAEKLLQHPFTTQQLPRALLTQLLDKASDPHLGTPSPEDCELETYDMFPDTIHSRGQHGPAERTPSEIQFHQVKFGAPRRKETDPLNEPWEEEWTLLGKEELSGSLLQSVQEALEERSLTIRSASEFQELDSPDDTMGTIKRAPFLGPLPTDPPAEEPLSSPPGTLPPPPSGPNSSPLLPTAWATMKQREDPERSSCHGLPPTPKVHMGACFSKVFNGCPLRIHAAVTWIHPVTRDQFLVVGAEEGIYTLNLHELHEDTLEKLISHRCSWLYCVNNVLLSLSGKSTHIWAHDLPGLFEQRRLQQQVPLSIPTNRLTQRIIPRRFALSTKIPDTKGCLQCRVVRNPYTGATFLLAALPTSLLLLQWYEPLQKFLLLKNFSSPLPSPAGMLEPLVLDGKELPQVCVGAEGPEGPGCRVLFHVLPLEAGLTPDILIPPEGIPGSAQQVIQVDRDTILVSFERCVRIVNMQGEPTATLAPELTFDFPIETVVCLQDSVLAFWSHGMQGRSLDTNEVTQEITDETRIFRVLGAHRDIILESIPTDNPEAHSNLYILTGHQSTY
Put plainly: KINOMEscan, MAP4K2. The note with it: for remaining binding at 1 µM / remaining binding at 10 µM: kinase MAP4K2; for remaining binding at 1 µM: read-out: % of control at 1 µM; for remaining binding at 10 µM: read-out: % of control at 10 µM.

Assay [3] addresses T3, G2019S mutant of LRRK2 (Homo sapiens, UniProt Q5S007, G2019S).
T3 construct: purchased Ambit Biosciences (scanMAXX KINOMEscan)
Kind of assay: KINOMEscan, LRRK2 G2019S. The note with it: for remaining binding at 1 µM / remaining binding at 10 µM: kinase LRRK2(G2019S); for remaining binding at 1 µM: read-out: % of control at 1 µM; for remaining binding at 10 µM: read-out: % of control at 10 µM.

Assay [4] addresses T4, CLK2 (Homo sapiens, UniProt P49760).
T4 construct: purchased Ambit Biosciences (scanMAXX KINOMEscan)
Kind of assay: KINOMEscan, CLK2. Particulars: for remaining binding at 1 µM: read-out: % of control at 1 µM.

The target of assay [5] is T5, PIK4CB (Homo sapiens, UniProt Q9UBF8).
T5 construct: purchased Ambit Biosciences (scanMAXX KINOMEscan)
Put plainly: KINOMEscan, PIK4CB. The note with it: for remaining binding at 1 µM: read-out: % of control at 1 µM; for remaining binding at 10 µM: read-out: % of control at 10 µM.

In assay [6] the target is T6, FLT3 (D835Y mutant) (Homo sapiens, UniProt P36888, D835Y).
T6 construct: purchased Ambit Biosciences (scanMAXX KINOMEscan)
T6 sequence (P36888 27-993 D835Y): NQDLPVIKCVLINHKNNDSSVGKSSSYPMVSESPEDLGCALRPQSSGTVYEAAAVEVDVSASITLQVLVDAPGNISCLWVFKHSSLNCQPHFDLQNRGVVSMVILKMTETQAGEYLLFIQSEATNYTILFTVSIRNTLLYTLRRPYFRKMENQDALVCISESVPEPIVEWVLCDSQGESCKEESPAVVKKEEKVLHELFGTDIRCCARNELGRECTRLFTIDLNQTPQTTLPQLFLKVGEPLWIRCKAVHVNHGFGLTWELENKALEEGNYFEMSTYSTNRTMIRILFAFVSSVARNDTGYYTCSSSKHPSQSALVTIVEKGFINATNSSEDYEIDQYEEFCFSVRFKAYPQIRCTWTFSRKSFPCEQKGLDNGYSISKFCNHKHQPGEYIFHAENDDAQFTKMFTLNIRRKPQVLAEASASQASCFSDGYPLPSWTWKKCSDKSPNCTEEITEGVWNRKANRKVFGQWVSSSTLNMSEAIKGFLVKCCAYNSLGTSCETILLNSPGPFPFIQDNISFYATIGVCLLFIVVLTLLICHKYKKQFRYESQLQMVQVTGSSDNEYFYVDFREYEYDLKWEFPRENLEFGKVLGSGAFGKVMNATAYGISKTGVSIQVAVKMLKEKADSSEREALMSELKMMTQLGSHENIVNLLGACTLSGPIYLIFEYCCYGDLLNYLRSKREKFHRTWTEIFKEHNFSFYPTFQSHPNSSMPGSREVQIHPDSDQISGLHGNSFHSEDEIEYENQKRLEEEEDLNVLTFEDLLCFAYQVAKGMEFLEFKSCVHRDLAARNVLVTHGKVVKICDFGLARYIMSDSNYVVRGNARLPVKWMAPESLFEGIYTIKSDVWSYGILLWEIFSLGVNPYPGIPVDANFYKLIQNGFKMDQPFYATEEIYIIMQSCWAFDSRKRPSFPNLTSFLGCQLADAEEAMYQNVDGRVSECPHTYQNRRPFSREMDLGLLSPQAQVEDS
Kind of assay: KINOMEscan, FLT3 D835Y. Particulars: for remaining binding at 1 µM / remaining binding at 10 µM: FLT3(D835Y); for remaining binding at 1 µM: read-out: % of control at 1 µM; for remaining binding at 10 µM: read-out: % of control at 10 µM.

T3 sequence (Q5S007 whole entry G2019S): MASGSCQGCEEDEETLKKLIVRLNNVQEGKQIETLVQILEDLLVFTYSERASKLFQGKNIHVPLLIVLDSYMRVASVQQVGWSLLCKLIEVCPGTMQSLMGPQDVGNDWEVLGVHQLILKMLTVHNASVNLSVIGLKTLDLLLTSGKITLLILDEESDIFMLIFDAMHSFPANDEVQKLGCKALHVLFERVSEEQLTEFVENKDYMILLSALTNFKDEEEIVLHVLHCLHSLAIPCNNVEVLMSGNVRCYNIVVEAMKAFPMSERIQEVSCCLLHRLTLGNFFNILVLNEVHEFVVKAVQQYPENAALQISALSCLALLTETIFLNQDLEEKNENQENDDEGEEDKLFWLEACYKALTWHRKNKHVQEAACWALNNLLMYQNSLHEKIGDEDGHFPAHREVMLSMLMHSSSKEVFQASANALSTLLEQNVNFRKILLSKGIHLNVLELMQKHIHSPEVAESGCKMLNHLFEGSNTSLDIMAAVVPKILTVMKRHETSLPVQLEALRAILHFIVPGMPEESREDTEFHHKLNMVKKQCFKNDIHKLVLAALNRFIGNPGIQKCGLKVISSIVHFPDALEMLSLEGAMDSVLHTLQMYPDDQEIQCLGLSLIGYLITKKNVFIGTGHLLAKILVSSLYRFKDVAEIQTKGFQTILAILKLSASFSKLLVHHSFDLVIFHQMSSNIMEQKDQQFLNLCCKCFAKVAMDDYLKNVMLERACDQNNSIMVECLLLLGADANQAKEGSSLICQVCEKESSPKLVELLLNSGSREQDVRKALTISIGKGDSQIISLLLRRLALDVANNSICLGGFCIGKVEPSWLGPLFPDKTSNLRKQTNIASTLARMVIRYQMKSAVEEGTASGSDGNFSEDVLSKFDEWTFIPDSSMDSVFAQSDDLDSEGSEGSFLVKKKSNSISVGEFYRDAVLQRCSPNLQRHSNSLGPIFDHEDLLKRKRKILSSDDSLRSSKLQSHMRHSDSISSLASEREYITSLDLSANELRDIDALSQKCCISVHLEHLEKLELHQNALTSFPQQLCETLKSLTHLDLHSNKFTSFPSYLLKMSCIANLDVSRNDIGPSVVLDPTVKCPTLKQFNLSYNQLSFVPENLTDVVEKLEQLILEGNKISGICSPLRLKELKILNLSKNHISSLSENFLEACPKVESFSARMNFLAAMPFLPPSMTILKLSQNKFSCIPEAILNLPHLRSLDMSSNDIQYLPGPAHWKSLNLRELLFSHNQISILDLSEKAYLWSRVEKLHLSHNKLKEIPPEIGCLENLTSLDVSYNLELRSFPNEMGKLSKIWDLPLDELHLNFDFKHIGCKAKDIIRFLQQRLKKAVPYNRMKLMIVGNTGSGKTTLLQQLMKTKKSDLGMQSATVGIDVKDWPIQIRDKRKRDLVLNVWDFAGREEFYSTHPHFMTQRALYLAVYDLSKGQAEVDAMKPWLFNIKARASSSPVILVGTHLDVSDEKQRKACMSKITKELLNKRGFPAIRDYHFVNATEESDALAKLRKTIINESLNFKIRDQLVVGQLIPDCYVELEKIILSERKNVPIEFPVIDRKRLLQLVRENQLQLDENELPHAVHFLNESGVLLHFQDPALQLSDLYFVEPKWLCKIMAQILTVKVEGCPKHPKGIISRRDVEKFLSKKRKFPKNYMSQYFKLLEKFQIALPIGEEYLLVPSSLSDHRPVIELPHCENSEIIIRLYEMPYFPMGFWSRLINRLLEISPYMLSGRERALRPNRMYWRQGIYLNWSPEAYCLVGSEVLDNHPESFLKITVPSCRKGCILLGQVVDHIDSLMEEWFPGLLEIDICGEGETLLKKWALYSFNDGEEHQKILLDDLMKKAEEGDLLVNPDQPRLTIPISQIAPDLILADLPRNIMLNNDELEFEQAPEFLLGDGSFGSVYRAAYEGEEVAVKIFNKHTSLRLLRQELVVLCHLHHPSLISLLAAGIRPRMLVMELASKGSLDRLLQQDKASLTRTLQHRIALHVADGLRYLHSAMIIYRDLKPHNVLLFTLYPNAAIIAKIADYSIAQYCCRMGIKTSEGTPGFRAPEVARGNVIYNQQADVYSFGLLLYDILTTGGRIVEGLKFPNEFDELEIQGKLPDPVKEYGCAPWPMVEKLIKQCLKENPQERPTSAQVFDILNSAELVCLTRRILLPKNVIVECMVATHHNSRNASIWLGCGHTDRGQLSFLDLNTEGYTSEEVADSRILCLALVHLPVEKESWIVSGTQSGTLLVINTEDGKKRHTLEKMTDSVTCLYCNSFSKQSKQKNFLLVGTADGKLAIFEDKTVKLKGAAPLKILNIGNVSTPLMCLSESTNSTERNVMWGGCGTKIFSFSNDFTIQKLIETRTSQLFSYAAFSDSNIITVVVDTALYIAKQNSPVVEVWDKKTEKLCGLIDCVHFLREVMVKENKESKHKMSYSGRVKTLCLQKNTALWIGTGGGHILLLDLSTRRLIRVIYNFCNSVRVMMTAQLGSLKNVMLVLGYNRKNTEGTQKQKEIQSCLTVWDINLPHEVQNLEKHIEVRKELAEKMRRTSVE
T5 sequence (Q9UBF8 whole entry): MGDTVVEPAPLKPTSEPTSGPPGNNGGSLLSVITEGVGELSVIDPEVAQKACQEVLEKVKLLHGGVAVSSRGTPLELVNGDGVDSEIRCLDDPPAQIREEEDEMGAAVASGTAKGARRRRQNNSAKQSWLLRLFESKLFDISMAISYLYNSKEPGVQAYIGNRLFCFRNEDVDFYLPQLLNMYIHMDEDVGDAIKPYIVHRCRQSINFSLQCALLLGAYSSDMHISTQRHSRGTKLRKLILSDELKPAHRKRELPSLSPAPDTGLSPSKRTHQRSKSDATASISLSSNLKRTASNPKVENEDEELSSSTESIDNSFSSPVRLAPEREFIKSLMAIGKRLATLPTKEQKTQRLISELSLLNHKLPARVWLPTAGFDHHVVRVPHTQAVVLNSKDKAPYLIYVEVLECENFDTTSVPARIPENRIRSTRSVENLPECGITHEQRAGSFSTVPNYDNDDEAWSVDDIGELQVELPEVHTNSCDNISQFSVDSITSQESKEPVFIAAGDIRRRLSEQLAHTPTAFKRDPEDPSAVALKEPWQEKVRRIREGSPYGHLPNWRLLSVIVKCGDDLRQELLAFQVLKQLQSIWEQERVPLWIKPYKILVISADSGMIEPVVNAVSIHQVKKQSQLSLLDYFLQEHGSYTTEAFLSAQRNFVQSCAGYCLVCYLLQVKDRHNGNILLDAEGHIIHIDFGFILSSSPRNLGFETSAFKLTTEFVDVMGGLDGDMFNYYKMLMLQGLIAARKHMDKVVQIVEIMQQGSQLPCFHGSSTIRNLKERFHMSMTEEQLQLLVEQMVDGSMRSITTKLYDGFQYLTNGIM
T1 sequence (P23458 875-1153 limits assumed): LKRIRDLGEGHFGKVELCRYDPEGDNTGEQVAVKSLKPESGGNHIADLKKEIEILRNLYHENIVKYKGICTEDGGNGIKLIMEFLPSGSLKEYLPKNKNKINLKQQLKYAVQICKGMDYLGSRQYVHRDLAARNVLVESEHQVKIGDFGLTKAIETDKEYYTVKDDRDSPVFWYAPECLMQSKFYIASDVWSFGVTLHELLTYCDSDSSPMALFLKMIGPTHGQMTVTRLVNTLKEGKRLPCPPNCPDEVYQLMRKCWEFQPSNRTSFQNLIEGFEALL
T4 sequence (P49760 whole entry): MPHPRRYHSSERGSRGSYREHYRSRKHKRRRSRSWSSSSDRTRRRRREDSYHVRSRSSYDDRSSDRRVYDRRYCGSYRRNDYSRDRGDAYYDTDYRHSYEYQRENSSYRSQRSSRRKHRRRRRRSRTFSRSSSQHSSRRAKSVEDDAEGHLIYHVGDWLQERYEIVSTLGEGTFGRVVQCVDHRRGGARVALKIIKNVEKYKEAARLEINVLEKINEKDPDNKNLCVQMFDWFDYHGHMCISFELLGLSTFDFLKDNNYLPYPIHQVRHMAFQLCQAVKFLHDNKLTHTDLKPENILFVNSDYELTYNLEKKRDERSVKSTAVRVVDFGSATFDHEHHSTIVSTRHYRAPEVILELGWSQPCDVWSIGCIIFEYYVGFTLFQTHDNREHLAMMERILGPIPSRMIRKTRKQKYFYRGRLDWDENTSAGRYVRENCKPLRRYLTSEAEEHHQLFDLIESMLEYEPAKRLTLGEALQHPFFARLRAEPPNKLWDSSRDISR

For the molecule `Nc1cc(C(F)(F)F)c(-c2cc(N3CCOCC3)nc(N3CCOCC3)n2)cn1` [Buparlisib], the remaining binding at 1 µM is 96% in assay [1]; 82% in assay [2]; 88% in assay [3]; 29% in assay [4] (CLK2); 86% in assay [5] (kinase PIK4CB, 1 µM); 70% in assay [6]. Moreover, the remaining binding at 10 µM stood at 100% in assay [1]; 100% in assay [2]; 80% in assay [3]; 18% in assay [4] (CLK2, 10 µM, read-out: % of control at 10 µM); 100% in assay [5] (kinase PIK4CB); 42% in assay [6]. For the same molecule, the “binding to CLK2” value in assay [4] (10 μM) is more than 80%.
As for `Cn1c(=O)n(-c2ccc(C(C)(C)C#N)cc2)c2c3cc(-c4cnc5ccccc5c4)ccc3ncc21` [Dactolisib, 2-methyl-2-[4-(3-methyl-2-oxo-8-quinolin-3-yl-2,3-dihydroimidazo[4,5-c]quinolin-1-yl)-phenyl] propionitrile], the inhibition at 1 µM in assay [1] (1 μM), in assay [2] (1 μM) and in assay [6] (1 μM) was more than 80% throughout. Moreover, the remaining binding at 1 µM in assay [1] is 12%; in assay [2], 0.25%; in assay [3], 53%; in assay [4] (CLK2), 81%; in assay [5], 64%; in assay [6], 13%.
On to `COc1ncc(-c2ccc3nccc(-c4ccnnc4)c3c2)cc1NS(=O)(=O)c1ccc(F)cc1F` [Omipalisib], for which the remaining binding at 1 µM is 100% in assay [1]; 100% in assay [2]; 87% in assay [3]; 92% in assay [4] (CLK2); 0.7% in assay [5] (kinase PIK4CB, 1 µM); 100% in assay [6]. For the same molecule, the “off-target binding to PIK4CB” value in assay [5] (1 μM) is listed as “non-selective”.
As for `CS(=O)(=O)N1CCN(Cc2cc3nc(-c4cccc5[nH]ncc45)nc(N4CCOCC4)c3s2)CC1` [Pictilisib, 2-(1H-indazol-4-yl)-6-(4-methanesulfonyl-piperazin-1-ylmethyl)-4-morpholin-4-yl-t hieno[3,2-d]pyrimidine], the remaining binding at 1 µM was found to be 100% in assay [1]; 100% in assay [2]; 82% in assay [3]; 100% in assay [5] (kinase PIK4CB, 1 µM). Moreover, the remaining binding at 10 µM in assay [1] worked out at 100%; in assay [2], 61%; in assay [3] it was 51%; in assay [5] (kinase PIK4CB) it was 75%; in assay [6], 5.4%.
`FC(F)c1nc2ccccc2n1-c1nc(N2CCOCC2)nc(N2CCOCC2)n1` [ZSTK474, 2-(difluoromethyl)-1-[4,6-di(4-morpholinyl)-1,3,5-triazin-2-yl]-1H-benzimidazole]: the remaining binding at 1 µM in assay [1] came to 98%; in assay [2], 85%; in assay [3] it was 0.3%; in assay [4] (CLK2), 100%; in assay [5] (kinase PIK4CB, 1 µM), 84%; in assay [6], 84%. Also, the “binding to LRRK2 G2019S” value in assay [3] (1 μM) is 99.7%.

For orientation: inhibition means how much of the control response was suppressed.

These data come from article PMC5564600 (Oncotarget, 2017).
